One data set addresses tyrosinase. To be noted: cited from earlier work.
Data set [1] in a line: MTT assay for cell viability, B16F10. The data set is classed as cell-based. The settings on record: mouse, B16F10 melanoma cells, B16F10, 10 µM, ± SD. The method, then: (§1) The cytotoxic activity of compound was evaluated in B16F10 cells using 3-(4,5-dimethylthiazol-2-yl)-2,5-diphenyltetrazolium bromide (MTT) assay. Cells were seeded in a 96-well plate (5 × 10^3 cells/well) and incubated at 37 °C with samples at different concentrations for 48 h. Following the treatment, cells were incubated with MTT (0.5 mg mL^−1) at 37 °C for 3 h. The MTT-containing medium was then removed, and 100 μL of DMSO was added to each well, mixed thoroughly with a 10 min shake to dissolve formazan crystals. The absorbance of each well was measured at 540 nm.
Background: Tetrazolium dyes change colour on reduction, which living cells bring about.

For the next data set, the system named is B16F10 melanoma cells. The data set can be described thus: Melanin content assay. The data set is classed as cell-based. To be noted: B16F10, 10 µM, in comparison with the control. Here is the method:
B16F10 cells were seeded in six-well plates (1.0 × 10^5 cells/well). After 24 h, the medium was substituted by a fresh one and treated with 3f, and incubated for 48 h. Then, cells were treated with 100 nM α -MSH. […] After incubation cells were washed twice with PBS and harvested using […] trypsin, then dissolved in 300 μL of 1 N NaOH/10% DMSO buffer and boiled for 2 h at 80 °C to solubilize the melanin. The absorbance of the supernatant was measured at 470 nm in a microplate reader. The obtained results were normalized using total protein content.

The nature of data set [2]: MTT assay for cell viability, A375. The data set is classed as cell-based. To be noted: human, A375 melanoma cells, A375, 10 µM, ± SD. The method, then:
The A375 cell line is derived from a human skin melanoma carrying two mutant genes, B-RAF and CDKN2 which are associated with melanoma of sun-damaged skin [48]. To determine the cytotoxicity of 3f in A375 melanoma cell lines, MTT studies were conducted.
as §1

A further data set has as its target T1, mushroom tyrosinase (Agaricus bisporus, UniProt C7FF04).
T1 construct: purchased Sigma Chemical Co. (St. Louis, MO, USA)
The data set is described as follows: Determination of the inhibition type (Lineweaver–Burk kinetics). Type of data set: biochemical. The settings on record: Lineweaver–Burk plot, L-DOPA substrate. The method, then: A series of experiments were performed to determine the inhibition kinetics of 3f. The inhibitor concentrations were: 0, 8, 16 μM. Substrate (L-DOPA) concentrations were (0.1, 0.25, 0.5, 0.75 and 1.5 mM) in kinetic studies. Pre-incubation and measurement time was the same as discussed in the mushroom tyrosinase inhibition assay protocol. Maximum initial velocity was determined from the initial linear portion of absorbance up to 10 min after addition of L-DOPA with 1 min interval. The Michaelis constant (Km) and the maximal velocity (Vmax) of the tyrosinase activity were determined by the Lineweaver–Burk plot at various concentrations of L-DOPA as a substrate. The inhibition type of the enzyme was assayed by Lineweaver–Burk plots of the inverse of velocities (1/V) versus the inverse of substrate concentrations 1/[S] mM^−1.

This is an account of results in paper PMC8480273, “Design, synthesis, and biological evaluation of symmetrical azine derivatives as novel tyrosinase inhibitors” (BMC Chemistry, 2021).

Like-named read-outs stand apart in the source and are kept apart here. A value given as a limit tells only on which side of the number the result lay.

T1 sequence (C7FF04 1-392): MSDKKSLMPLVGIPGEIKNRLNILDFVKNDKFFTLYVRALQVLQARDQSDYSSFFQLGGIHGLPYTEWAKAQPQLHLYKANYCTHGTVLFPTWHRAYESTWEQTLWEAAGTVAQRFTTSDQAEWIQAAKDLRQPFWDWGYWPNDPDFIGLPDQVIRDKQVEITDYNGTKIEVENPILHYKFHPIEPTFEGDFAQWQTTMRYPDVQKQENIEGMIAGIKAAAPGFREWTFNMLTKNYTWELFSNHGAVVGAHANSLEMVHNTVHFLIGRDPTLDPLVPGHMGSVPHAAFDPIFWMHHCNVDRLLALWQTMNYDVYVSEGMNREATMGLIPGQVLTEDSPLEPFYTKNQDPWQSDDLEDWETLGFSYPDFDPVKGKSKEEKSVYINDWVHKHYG

Usually IC50 stands for the concentration at which inhibition is half-maximal. For `O=c1cc(-c2ccc(O)c(O)c2)oc2cc(O)cc(O)c12` [Luteolin], the IC50 at tyrosinase (Fig. 1, flavone) is 60 µM.
On to `O=C1c2c(O)cc(O)cc2O[C@H](c2ccc(O)cc2O)[C@H]1O` [Dihydromorin], for which the IC50 on tyrosinase (Fig. 1, flavanol) was 10.3 µM.
Regarding `CCOc1cc(/C=N/NC(=O)c2ccc(O)c(OC)c2)ccc1O` [E], the half-inhibitory concentration (IC50) on tyrosinase (hydrazine-containing compound) is 1.58 µM.
Consider `O=C1CC(c2ccc(O)cc2O)Oc2cc(O)cc(O)c21` (stereo not drawn) [Streppogenin], for which, at tyrosinase (Fig. 1, flavanone), the IC50 is 1.3 µM.
For the compound `CCOc1cc(/C=N/NC(=O)c2ccc(O)cc2)ccc1O` [D], on tyrosinase (hydrazine-containing compound), the half-inhibitory concentration (IC50) was 9.9 µM.
Consider Phthalimide, for which the IC50 at tyrosinase (Fig. 1, phthalimide) was 26.2 µM.
Consider Quinazoline, for which the concentration for half-maximal inhibition (IC50) at tyrosinase (Fig. 1, quinazoline) is 0.46 µM.
As to `NC(=S)N/N=C/c1ccc([N+](=O)[O-])cc1` [F], the 50% inhibitory concentration (IC50) at tyrosinase (hydrazine-containing compound) is 0.05 µM.
Usually viability stands for a per cent measure of how many cells are alive, often set against a control. Low values mean more harm to the cells, high ones less harm to the cells. `Oc1ccc(C=NN=Cc2ccc(O)cc2O)c(O)c1` [Compound 3f, 4,4′-(Hydrazine-1,2-diylidenebis(methaneylylidene))bis(benzene-1,3-diol)]: the viability at 48 h, 10 µM in data set [1] is 60.1 ± 9.82%; in data set [2] it was more than 82%. In the data set with B16F10 melanoma cells, the “Melanin content (%)” value was 79.58%. Moreover, the “Vmax and Km values in the presence of increasing concentrations of compound” value at mushroom tyrosinase is “decreased”. Also, the type of inhibition result on mushroom tyrosinase (inhibitor 0, 8, 16 μM) is on record as “uncompetitive”.
As usually defined, the Ki is a measure of affinity in units of concentration, obtained from inhibition or displacement. On to `O=c1c(O)c(-c2ccc(O)c(O)c2)oc2cc(O)cc(O)c12` [Quercetin], for which the inhibition constant (Ki) at tyrosinase (Fig. 1, flavonol) was 29 µM.
Take `Oc1ccc(/C=N/c2ccccc2O)c(O)c1` [compound B]: the IC50 at tyrosinase (most potent bibenzyl compound of Oozeki et al.) was 0.37 µM.
Turning to `Oc1ccc(/C=C/c2cc(O)cc(O)c2)cc1` [Resveratrol, 3,5,4′-trihydroxy-trans-stilbene], the IC50 on tyrosinase (Fig. 1, stilbenoid) was 1 to 9 µM; at tyrosinase (resveratrol) it was 26.6 µM.
On to Chalcone, for which the IC50 at tyrosinase (Fig. 1, chalcone) is 8.1 µM.
